These results are taken from US12011444B2, “N-substituted indole derivatives as PGE2 receptor modulators” (Idorsia Pharmaceuticals Ltd, priority 2015, dated 2024).

One experiment has as its target EP4 (Homo sapiens (Human), UniProt P35408). In words: hEP4 cAMP assay (BT549 breast cancer cells, HTRF cAMP). Type of experiment: cell-based. The settings on record: antagonistic activity; mean values where measured multiple times. As for the experimental part:
Plate is pre-incubated 45 minutes at room temperature. Subsequently, 2.5 microliters of PGE2 (final conc. 6 nM) are transferred into the assay plate. Plate is incubated 30 minutes at room temperature.

The next experiment has as its target EP2 (Homo sapiens (Human), UniProt P43116).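 Note: antagonism of PGE2-stimulated cAMP accumulation in SF295 human glioblastoma cells with endogenous EP2, cAMP read by HTRF, expressed relative to DMSO control.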

Molecules are shown by their SMILES.

EP2, sequence (P43116 whole entry): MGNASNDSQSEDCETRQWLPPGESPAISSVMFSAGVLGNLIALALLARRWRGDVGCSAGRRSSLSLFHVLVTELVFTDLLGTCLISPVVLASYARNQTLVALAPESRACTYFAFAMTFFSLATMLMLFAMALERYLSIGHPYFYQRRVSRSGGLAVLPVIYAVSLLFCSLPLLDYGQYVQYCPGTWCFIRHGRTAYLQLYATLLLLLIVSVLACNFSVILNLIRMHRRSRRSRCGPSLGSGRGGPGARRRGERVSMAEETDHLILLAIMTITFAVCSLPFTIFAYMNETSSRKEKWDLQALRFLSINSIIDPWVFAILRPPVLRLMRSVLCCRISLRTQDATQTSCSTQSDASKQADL
EP4, sequence (P35408 whole entry): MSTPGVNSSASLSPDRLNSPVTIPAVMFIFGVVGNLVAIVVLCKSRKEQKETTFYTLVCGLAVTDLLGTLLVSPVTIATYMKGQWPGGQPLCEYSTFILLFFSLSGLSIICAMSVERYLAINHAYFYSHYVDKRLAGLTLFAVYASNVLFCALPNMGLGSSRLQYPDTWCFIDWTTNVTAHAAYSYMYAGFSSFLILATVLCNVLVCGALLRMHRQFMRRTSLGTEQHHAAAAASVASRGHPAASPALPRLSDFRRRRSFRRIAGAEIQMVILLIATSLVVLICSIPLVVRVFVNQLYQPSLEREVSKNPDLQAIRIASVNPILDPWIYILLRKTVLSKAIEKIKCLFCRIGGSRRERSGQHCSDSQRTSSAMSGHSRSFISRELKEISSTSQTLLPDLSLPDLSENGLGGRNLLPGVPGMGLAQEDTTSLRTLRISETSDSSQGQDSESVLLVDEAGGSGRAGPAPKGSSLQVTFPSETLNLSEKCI

Take `Cc1cc2c(F)cc(F)c(F)c2n1CCNc1cc(-c2ccc(C(=O)O)c(CC(C)C)c2)ncn1` [compound 505]: the figures for the IC50 on EP4 and against EP2 were 671 nM and 21 nM, respectively.

In the case of `Cc1cc2c(F)c(F)cc(F)c2n1CCNc1cc(-c2ccc(C(=O)O)c(CC(C)C)c2)ncn1` [compound 506], the figures for the IC50 against EP4 and at EP2 were 113 nM and 12 nM, respectively.

In the case of `COc1ccc(C)c2c1cc(C)n2CCNc1cc(-c2ccc(C(=O)O)c(CC(C)C)c2)ncn1` [compound 507], the half-maximal inhibitory concentration (IC50) stood at 163 nM against EP4 and 18 nM on EP2.

Consider `Cc1ccc(F)c2c1cc(C)n2CCNc1cc(-c2ccc(C(=O)O)c(OC(F)(F)F)c2)ncn1` [compound 508], for which the IC50 against EP4 was found to be 583 nM; at EP2, 37 nM.

`COc1c(F)cc(Cl)c2c1cc(C)n2CCNc1cc(-c2cc(F)c(C(=O)O)c(SC)c2)ncn1` [compound 509]: the figures for the IC50 on EP4 and against EP2 were 684 nM and 110 nM, respectively.

As to `Cc1c(F)cc(F)c2c1cc(C)n2CCNc1cc(-c2ccc(C(=O)O)c(OC(F)F)c2)ncn1` [compound 510], the values for the IC50 at EP4 and at EP2 were 216 nM and 20 nM, respectively.

As for `CCCc1cc(-c2cc(NCCn3c(C)cc4c(OC)cc(Cl)cc43)ncn2)cc(F)c1C(=O)O` [compound 511], the IC50 came out at 158 nM against EP4 and 18 nM at EP2.

For the compound `CCCc1cc(-c2cc(NCCn3c(C)cc4c(OC)ccc(Cl)c43)ncn2)cc(F)c1C(=O)O` [compound 512], the IC50 against EP4 turned out to be 253 nM; at EP2, 21 nM.

In the case of `CCCc1cc(-c2cc(NCCn3c(C)cc4c(OC)ccc(Cl)c43)ncn2)cc(Cl)c1C(=O)O` [compound 513], the IC50 against EP4 was found to be 130 nM; at EP2, 24 nM.

For the compound `CCCc1cc(-c2cc(NCCn3c(C)cc4c(OC)ccc(F)c43)ncn2)cc(Cl)c1C(=O)O` [compound 514], the IC50 against EP4 was found to be 56 nM; at EP2, 5 nM.

`CCCc1cc(-c2cc(NCCn3c(C)cc4c(OC)ccc(F)c43)ncn2)cc(F)c1C(=O)O` [compound 515]: the IC50 on EP4 came out at 69 nM; at EP2, 8 nM.

Turning to `CCCc1cc(-c2cc(NCCn3c(C)cc4cc(OC)cc(F)c43)ncn2)cc(F)c1C(=O)O` [compound 516], the results for the IC50 against EP4 and against EP2 were 451 nM and 324 nM, respectively.

Turning to `CCCc1cc(-c2cc(NCCn3c(C)cc4c(OC)c(F)ccc43)ncn2)cc(Cl)c1C(=O)O` [compound 517], the IC50 on EP4 was 373 nM; at EP2, 97 nM.

In the case of `CCCc1cc(-c2cc(NCCn3c(C)cc4c(OC)cc(Cl)cc43)ncn2)cc(Cl)c1C(=O)O` [compound 518], the figures for the IC50 on EP4 and at EP2 were 40 nM and 11 nM, respectively.

Consider `CCCc1cc(-c2cc(NCCn3c(C)cc4c(OC)cc(F)cc43)ncn2)cc(Cl)c1C(=O)O` [compound 519], for which the IC50 against EP4 came to 34 nM; on EP2, 5 nM.

With `CCCc1cc(-c2cc(NCCn3c(C)cc4c(OC)c(F)ccc43)ncn2)cc(F)c1C(=O)O` [compound 520], the IC50 against EP4 was determined as 482 nM; on EP2 it was 82 nM.

`CCCc1cc(-c2cc(NCCn3c(C)cc4c(OC)cc(F)cc43)ncn2)cc(F)c1C(=O)O` [compound 521]: the IC50 at EP4 was determined as 64 nM; against EP2, 17 nM.

For `CCCOc1cc(-c2cc(NCCn3c(C)cc4c(C)cc(Cl)cc43)ncn2)cc(Cl)c1C(=O)O` [compound 522], the figures for the IC50 against EP4 and against EP2 were 217 nM and 21 nM, respectively.

On to `CCCOc1cc(-c2cc(NCCn3c(C)cc4c(C)cc(F)cc43)ncn2)cc(Cl)c1C(=O)O` [compound 523], for which the figures for the IC50 against EP4 and at EP2 were 141 nM and 35 nM, respectively.

Take `CCCOc1cc(-c2cc(NCCn3c(C)cc4c(C)cc(F)cc43)ncn2)cc(F)c1C(=O)O` [compound 524]: the IC50 on EP4 is 377 nM; against EP2 it was 36 nM.

As to `COc1cc(F)c(F)c2c1cc(C)n2CCNc1cc(-c2cc(C(F)(F)F)c(C(=O)O)s2)ncn1` [compound 525], the IC50 on EP4 stood at 14 nM; on EP2, 38 nM.

On to `Cc1cc(F)cc2c1cc(C)n2CCNc1cc(-c2ccc(C(=O)O)c(OCC(C)C)c2)ncn1` [compound 526], for which the IC50 on EP4 is 230 nM; against EP2, 10 nM.

For the compound `CCCCOc1cc(-c2cc(NCCn3c(C)cc4c(C)cc(F)cc43)ncn2)ccc1C(=O)O` [compound 527], the IC50 on EP4 stood at 134 nM; against EP2, 8 nM.

In the case of `COc1cc(F)cc2c1cc(C)n2CCNc1cc(-c2ccc(C(=O)O)c(C(C)(C)C)c2)ncn1` [compound 528], the values for the IC50 at EP4 and at EP2 were 151 nM and 119 nM, respectively.

With `COc1cc(Cl)cc2c1cc(C)n2CCNc1cc(-c2ccc(C(=O)O)c(CC(C)C)c2)ncn1` [compound 529], the IC50 is 110 nM at EP4 and 19 nM against EP2.

Take `COc1cc(F)cc2c1cc(C)n2CCNc1cc(-c2ccc(C(=O)O)c(CC(C)C)c2)ncn1` [compound 530]: the IC50 against EP4 came to 50 nM; against EP2, 21 nM.

As for `CCOc1cc(-c2cc(NCCn3c(C)cc4c(C)ccc(F)c43)ncn2)cc(CC)c1C(=O)O` [compound 532], the IC50 was determined as 828 nM against EP4 and 33 nM at EP2.

Turning to `CCCCOc1cc(-c2cc(NCCn3c(C)cc4c(C)ccc(F)c43)ncn2)ccc1C(=O)O` [compound 533], the IC50 against EP4 turned out to be 88 nM; on EP2, 3 nM.

On to `Cc1ccc(F)c2c1cc(C)n2CCNc1cc(-c2ccc(C(=O)O)c(OCC(C)C)c2)ncn1` [compound 534], for which the IC50 against EP4 was 91 nM; against EP2, 8 nM.

As for `COc1ccc(Cl)c2c1cc(C)n2CCNc1cc(-c2ccc(C(=O)O)c(CC(C)C)c2)ncn1` [compound 536], the IC50 on EP4 was 172 nM; on EP2, 27 nM.

As to `COc1ccc(F)c2c1cc(C)n2CCNc1cc(-c2ccc(C(=O)O)c(CC(C)C)c2)ncn1` [compound 537], the IC50 came to 81 nM on EP4 and 22 nM at EP2.

With `COc1c(F)ccc2c1cc(C)n2CCNc1cc(-c2ccc(C(=O)O)c(CC(C)C)c2)ncn1` [compound 538], the IC50 turned out to be 261 nM against EP4 and 64 nM on EP2.

Regarding `COc1ccc(F)c2cc(C)n(CCNc3cc(-c4ccc(C(=O)O)c(CC(C)C)c4)ncn3)c12` [compound 539], the IC50 on EP4 came to 948 nM; on EP2 it was 160 nM.

For the compound `COc1ccc(F)c2c1cc(C)n2CCNc1cc(-c2cc(C(F)(F)F)c(C(=O)O)s2)nc(C)n1` [compound 540], the IC50 on EP4 was 23 nM; at EP2, 18 nM.

As to `COc1cc(F)cc2c1cc(C)n2CCNc1cc(-c2cc(C(F)(F)F)c(C(=O)O)s2)nc(C)n1` [compound 541], the IC50 came to 25 nM on EP4 and 19 nM against EP2.

Regarding `CCSc1cc(-c2cc(NCCn3c(C)cc4c(OC)c(F)cc(Cl)c43)ncn2)ccc1C(=O)O` [compound 542], the IC50 at EP4 came to 522 nM; against EP2, 44 nM.

Regarding `CCOc1cc(-c2cc(NCCn3c(C)cc4c(C(F)(F)F)ccc(F)c43)ncn2)ccc1C(=O)O` [compound 543], the figures for the IC50 on EP4 and on EP2 were 250 nM and 990 nM, respectively.

Consider `Cc1cc(F)cc2c1cc(C)n2CCNc1cc(-c2ccc(-c3csc(C(=O)O)n3)cc2)ncn1` [compound 544], for which the IC50 against EP4 is 178 nM; against EP2, 47 nM.

Regarding `Cc1cc(F)cc2c1cc(C)n2CCNc1cc(-c2ccc(-c3nc(C(=O)O)cs3)cc2)ncn1` [compound 545], the IC50 was 119 nM at EP4 and 29 nM at EP2.

For orientation: IC50 means the concentration needed to halve the response being measured.
